Experimental data taken from patent US11351268B2, “FGF21 C-terminal peptide optimization” (INDIANA UNIVERSITY RESEARCH AND TECHNOLOGY CORPORATION, priority 2016, dated 2022).
No end group written: not given here.

Legend:
[1] = biological target: T1, Klotho β (KLB) (Homo sapiens, UniProt Q86Z14); assay: cell-based; format: cell-based; conditions: for Emax: Table 1, native sequence = 100% response, read-out: % max activity
T1 construct: expressed in transfected cells; host or cells: HEK 293T (ATCC), pooled Zeocin-selected cells stably expressing hKLB from pcDNA3.1(+)
T1 sequence (Q86Z14 1-1044): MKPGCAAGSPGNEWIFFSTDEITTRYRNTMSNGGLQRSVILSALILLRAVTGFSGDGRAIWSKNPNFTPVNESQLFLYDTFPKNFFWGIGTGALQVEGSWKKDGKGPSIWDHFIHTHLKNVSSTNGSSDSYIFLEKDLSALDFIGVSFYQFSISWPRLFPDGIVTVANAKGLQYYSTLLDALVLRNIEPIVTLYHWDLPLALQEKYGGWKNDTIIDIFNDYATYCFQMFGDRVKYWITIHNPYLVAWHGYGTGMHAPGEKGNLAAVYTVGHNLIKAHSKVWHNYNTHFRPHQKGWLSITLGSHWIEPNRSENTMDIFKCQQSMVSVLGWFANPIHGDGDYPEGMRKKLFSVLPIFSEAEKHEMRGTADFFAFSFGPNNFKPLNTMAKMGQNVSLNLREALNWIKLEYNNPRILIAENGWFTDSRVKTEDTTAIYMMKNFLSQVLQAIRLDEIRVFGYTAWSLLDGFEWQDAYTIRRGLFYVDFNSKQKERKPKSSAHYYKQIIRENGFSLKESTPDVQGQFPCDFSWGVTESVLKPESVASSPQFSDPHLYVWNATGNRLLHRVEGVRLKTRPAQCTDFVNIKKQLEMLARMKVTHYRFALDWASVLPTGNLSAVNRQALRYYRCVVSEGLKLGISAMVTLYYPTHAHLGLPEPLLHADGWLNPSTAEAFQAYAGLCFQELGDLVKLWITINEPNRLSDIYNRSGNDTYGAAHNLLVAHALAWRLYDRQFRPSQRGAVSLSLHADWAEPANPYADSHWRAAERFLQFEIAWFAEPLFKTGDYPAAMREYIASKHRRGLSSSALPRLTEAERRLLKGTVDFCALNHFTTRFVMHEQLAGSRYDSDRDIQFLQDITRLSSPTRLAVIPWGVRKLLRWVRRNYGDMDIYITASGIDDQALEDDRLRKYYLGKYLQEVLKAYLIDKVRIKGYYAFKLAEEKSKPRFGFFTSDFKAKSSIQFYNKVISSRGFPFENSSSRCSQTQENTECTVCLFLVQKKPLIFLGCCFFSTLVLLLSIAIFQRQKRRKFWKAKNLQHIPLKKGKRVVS
Experimental: (§1) Cells were cultured in 10% Fetal Bovine Serum containing DMEM High glucose GLUTAMAX® at 37 C, 95% humidity, 5% CO2. For generating the cell line with stable expression, human KLB gene was synthesized by Genscript and subcloned into pcDNA3.1(+) with ZEOCIN® resistance vector (INVITROGEN®) by NheI and NotI restriction enzyme sites. HEK 293T cells were obtained from ATCC and were transiently transfected at 80% confluency using Lipofectamine 3000 (Invitrogen). Selection for KLB-expressing cells was initiated 48 hours post-transfection in the growth media containing 100 μg/ml of ZEOCIN® (Gibco) and continued for 4 weeks with fresh media added every third day. Human KLB expression in pooled cells was confirmed by Western blot and a functional FGF21 MAPK phosphorylation assay.
(§2) 293 HEK cells expressing hKLB were plated to 90% confluency in 96 well plates coated with poly-D-Lysine. Cells were serum starved for three hours in 0.1% BSA containing media prior to stimulation with protein and/or an antagonist peptide for ten minutes at 37° C. The cell lysate was used for the detection of phospho-Erk1/2 levels by AlphaSureFire kit using the prescribed protocol. The degree of biochemical activation was recorded and analyzed using Origin software by logistic curve fitting. Tests at each concentration were done in triplicates, and the standard deviation is as shown in the graphs. The calculation of maximal activities was done keeping the FGF21 157-181 or FGF19 169-194 peptide activity as standard. The difference between the Erk1/2 phosphorylation signal for the highest (10 μM) and the lowest (0 μM) tested dose for native peptide was considered as 100% and accordingly all the other values were assigned.

[2] = system: FGF21 receptor; assay: Erk1/2 phosphorylation assay: agonist activity in 293T HEK hKLB cells; format: cell-based, human; conditions: for EC50: read-out: EC-50; for IC50: full length FGF21 analogs, tested in triplicate
Experimental: as §1, §2

[3] = FIG. 8A, substitutions at terminal position of FGF19 169-194 peptide
[4] = FIG. 8B, FGF21 and FGF19 C-terminal peptides
[5] = Table 5, FGF19/FGF21 chimeric peptides
[6] = Table 1, alanine scan of FGF21 25mer, antagonism of native FGF21 response
[7] = Table 2(A), FGF21 157-181 alanine mutants, ≥95% maximal activity
[8] = Table 6, derivatives of SEQ ID NO: 180
[9] = FIGS. 9A/9B, full length proteins, Erk1/2 phosphorylation

PPDVGSSDPLSMVGPSQGRAPSYAS-NH2 (C-terminus assumed) [Peptide A20, PPDVGSSDPLSMVGPSQGRAPSYAS]
Emax [1]: 73.5%

PLETDSMDPFGLVTGLEAVRSPSFEA-NH2 (C-terminus assumed) [FGF19 A25]
IC50 [1, 3]: 10.5 nM | IC50 [1, 4]: 0.5 nM | IC50 [1, 5]: 19.1 ± 1.5 nM

PLETDSSDPLSMVGPSQGRSPSFEA-NH2 (C-terminus assumed) [Peptide 0432]
IC50 [1, 5]: 120 ± 6.3 nM

PPDVGSSDPLSMVGPSAGRSPSYAS-NH2 (C-terminus assumed) [Peptide A17, PPDVGSSDPLSMVGPSAGRSPSYAS]
% max activity [1]: 99.7% | IC50 [1, 6]: 139 nM | IC50 [1, 7]: 130 nM

PPDVASSDPLSMVGPSQGRSPSYAS-NH2 (C-terminus assumed) [Peptide A5, PPDVASSDPLSMVGPSQGRSPSYAS]
% max activity [1]: 102.5%

PLETDSMDPFGLVTGLEAVRSPSFEE-NH2 (C-terminus assumed) [Peptide K194E]
IC50 [1, 3]: 87.9 nM

PPDVGSSDPLSMVGASQGRSPSYAS-NH2 (C-terminus assumed) [Peptide A15, PPDVGSSDPLSMVGASQGRSPSYAS]
Emax [1]: 93.9% | IC50 [1, 7]: 120 nM

PLETDSMDPFGLVTGLEAVRSPSFEK-NH2 (C-terminus assumed) [FGF19 WT, reference compound]
IC50 [1, 4]: 50 nM | IC50 ([1]; Table 2(A), FGF19 169-194 alanine mutants, ≥95% maximal activity): 270 ± 90 nM

APDVGSSDPLSMVGPSQGRSPSYAS-NH2 (C-terminus assumed) [Peptide A1, APDVGSSDPLSMVGPSQGRSPSYAS]
Emax [1]: 100%

PPDVGSSDPLSMVGPSQGRSPSYAS-NH2 [Peptide C25, PPDVGSSDPLSMVGPSQGRSPSYAS, reference compound]
% max activity [1]: 100.0% | IC50 [1, 4]: 40 nM | IC50 [1, 5]: 116 ± 4 nM

PPDVGSMDPFGLVGPSQGRSPSFEA-NH2 (C-terminus assumed) [Peptide 0431]
IC50 [1, 5]: 4.1 ± 0.1 nM | IC50 [1, 8]: 7.1 ± 3 nM

PPAVGSSDPLSMVGPSQGRSPSYAS-NH2 (C-terminus assumed) [Peptide A3, PPAVGSSDPLSMVGPSQGRSPSYAS]
Emax [1]: 87.8%

PPDVGSSDPLSMVGPSQGRSPSYAA-NH2 (C-terminus assumed) [Peptide A25, PPDVGSSDPLSMVGPSQGRSPSYAA]
% max activity [1]: 99.0%

FGF21 162-181: C-terminal fragment of FGF21, residues 162-181 (SSDPLSMVGPSQGRSPSYAS) [reference compound]
antagonism of FGF21 activity (in words) ([1]; 10 nM FGF21 stimulation, 293 HEK hKLB cells): non-functional

PPDVLSMDPFGLVGPSQGRSPSFEA-NH2 (C-terminus assumed) [Peptide 0481]
IC50 [1, 8]: 2.6 ± 0.8 nM

PPDVGSADPLSMVGPSQGRSPSYAS-NH2 (C-terminus assumed) [Peptide A7, PPDVGSADPLSMVGPSQGRSPSYAS]
Emax [1]: 94.5%

PPDVGSSDPLAMVGPSQGRSPSYAS-NH2 (C-terminus assumed) [Peptide A11, PPDVGSSDPLAMVGPSQGRSPSYAS]
IC50 [1, 6]: 102 nM | Emax [1]: 98% | IC50 [1, 7]: 150 nM

B1: FGF21 D164A: full length FGF21 with alanine at position 164 (protein)
chain: HPIPDSSPLLQFGGQVRQRYLYTDDAQQTEAHLEIREDGTVGGAADQSPESLLQLKALKPGVIQILGVKTSRFLCQRPDGALYGSLHFDPEACSFRELLLEDGYNVYQSEAHGLPLHLPGNKSPHRDPAPRGPARFLPLPGLPPALPEPPGILAPQPPDVGSSAPLSMVGPSQGRSPSYAS
EC-50 [2, 9]: inactive

B2: FGF21 P171A: full length FGF21 with alanine at position 171 (protein)
chain: HPIPDSSPLLQFGGQVRQRYLYTDDAQQTEAHLEIREDGTVGGAADQSPESLLQLKALKPGVIQILGVKTSRFLCQRPDGALYGSLHFDPEACSFRELLLEDGYNVYQSEAHGLPLHLPGNKSPHRDPAPRGPARFLPLPGLPPALPEPPGILAPQPPDVGSSDPLSMVGASQGRSPSYAS
EC50 [2, 9]: 4.5 nM

B3: FGF21-19 K194A: chimeric analog: core of FGF21 1-156 and an extension of the FGF19 169-194 K194A peptide (protein)
chain: HPIPDSSPLLQFGGQVRQRYLYTDDAQQTEAHLEIREDGTVGGAADQSPESLLQLKALKPGVIQILGVKTSRFLCQRPDGALYGSLHFDPEACSFRELLLEDGYNVYQSEAHGLPLHLPGNKSPHRDPAPRGPARFLPLPGLPPALPEPPGILAPQPLETDSMDPFGLVTGLEAVRSPSFEA
% maximal activity [2, 9]: 84% | EC50 [2, 9]: 0.5 nM | fold more potent than native FGF21 ([2]; agonist activity of chimeric analog): approximately 5 fold

B4: FGF21 481K: analog of FGF21 481A where the C-terminal alanine is replaced with a lysine (protein)
chain: HPIPDSSPLLQFGGQVRQRYLYTDDAQQTECHLEIREDGTVGCAADQSPESLLQLKALKPGVIQILGVKTSRFLCQRPDGALYGSLHFDPEACSFREDLKEDGYNVYQSEAHGLPLHLPGDKSPHRKPAPRGPARFLPLPGLPPALPEPPGILAPQPPDVLSMDPFGLVGPSQGRSPSFEK
IC50 [2]: 0.56 ± 0.06 nM

B5: FGF21 481A: modified FGF21 N-terminus fused to peptide 0481 (protein, listed as Homo sapiens)
chain: HPIPDSSPLLQFGGQVRQRYLYTDDAQQTECHLEIREDGTVGCAADQSPESLLQLKALKPGVIQILGVKTSRFLCQRPDGALYGSLHFDPEACSFREDLKEDGYNVYQSEAHGLPLHLPGDKSPHRKPAPRGPARFLPLPGLPPALPEPPGILAPQPPDVLSMDPFGLVGPSQGRSPSFEA
IC50 [2]: 0.19 ± 0.08 nM

B6: FGF21 482K: analog of FGF21 482A where the C-terminal alanine is replaced with a lysine (protein)
chain: HPIPDSSPLLQFGGQVRQRYLYTDDAQQTECHLEIREDGTVGCAADQSPESLLQLKALKPGVIQILGVKTSRFLCQRPDGALYGSLHFDPEACSFREDLKEDGYNVYQSEAHGLPLHLPGDKSPHRKPAPRGPARFLPLPGLPPALPEPPGILAPQPPDVSSMDPFGLVGPSQGRSPSFEK
IC50 [2]: 1.81 ± 0.18 nM

B7: FGF21 482A: modified FGF21 N-terminus fused to peptide 0482 (protein, listed as Homo sapiens)
chain: HPIPDSSPLLQFGGQVRQRYLYTDDAQQTECHLEIREDGTVGCAADQSPESLLQLKALKPGVIQILGVKTSRFLCQRPDGALYGSLHFDPEACSFREDLKEDGYNVYQSEAHGLPLHLPGDKSPHRKPAPRGPARFLPLPGLPPALPEPPGILAPQPPDVSSMDPFGLVGPSQGRSPSFEA
IC50 [2]: 0.22 ± 0.03 nM
